Measured values from patent publication US20180200257A1, “METHODS FOR THE TREATMENT OF INFLAMMATORY DISORDERS” (Galapagos NV, priority 2015, published 2018).

Tested on: subjects with moderately to severely active RA who have an inadequate response to methotrexate (MTX)
Assay: Study 1 (add-on to MTX) - Subject VAS mean changes (ACR patient assessment)
Assay type: in vivo, human
Procedure: The scale is 100 mm, the decrease in mm is shown. […] (dotted line), 100 mg q.d. (dashed line) or 200 mg q.d. (dark solid line). […] The results shown in the figures are calculated using Last-Observation-Carried-Forward (LOCF), which handles missing data by assigning the value recorded at the patient's last visit to all subsequent missed visits.
Double-blind, placebo-controlled add on study in subjects with moderately to severely active RA who have an inadequate response to methotrexate (MTX) (oral or parenteral).
595 subjects randomized to one of 6 dose regimens of Compound 1 (dosed as [Compound 1:HCl:3H2O]) (3 dose levels administered either once or twice daily) or placebo on top of each subject's stable dose of MTX.
Compound 1 (dosed as [Compound 1:HCl:3H2O]) is dosed for twelve weeks once daily (q.d.) (50 mg, 100 mg or 200 mg) or twice daily (b.i.d.) (25 mg, 50 mg or 100 mg); or placebo.
At Week 12, the subjects on placebo who have not achieved 20% improvement in swollen joint count (SJC66) and tender joint count (TJC68) are re-randomized automatically to receive Compound 1 (dosed as a [Compound 1:HCl:3H2O]) either at 100 mg q.d. or 50 mg b.i.d. doses in a blinded fashion; subjects on 50 mg q.d. who have not achieved 20% improvement in SJC66 and TJC68 will be assigned to 100 mg q.d. and subjects on 25 mg b.i.d. that have not achieved a 20% improvement in SJC66 and TJC68 will be assigned to 50 mg b.i.d. Subjects who switch treatment at week 12 are handled as if they discontinued at week 12 for the purpose of statistical analysis, whereas subjects in the other groups will maintain their randomized treatment until Week 24.
Firstly, the patient is asked to make a vertical mark on a 100 mm Visual Analog Scale (VAS) corresponding to their general health or global disease activity on a touch screen to measure the VAS value, which is used in the formula below.
The American College of Rheumatology (ACR) composite score, which evaluates clinical improvement relative to an initial assessment, is a commonly accepted efficacy end point for clinical trials in patients with rheumatoid arthritis. The ACR score correspond to a percentage improvement in pre-set parameters, and therefore measures the evolution of the disease in a patient. For example, ACR20 denotes at least 20% improvement in tender and swollen joint counts and in three of the following end points: global assessment by the patient, global assessment by the doctor, C reactive protein (CRP), patient's pain Visual Analogue Scale and Health Assessment Questionnaire Score. The number of swollen joints, ESR and CRP correlate with radiographic progression of joint damage, whereas tender joint counts, as well as global assessments by doctors and patients, and patients' reports of pain, are sensitive to change in clinical outcomes. Physical function, as assessed by the Health Assessment Questionnaire Score, is a potent predictor of the risk of disability in rheumatoid arthritis (Felson and American College of Rheumatology Committee to Reevaluate Improvement Criteria, 2007; Felson et al., 1993).

SMILES: O=C(Nc1nc2cccc(-c3ccc(CN4CCS(=O)(=O)CC4)cc3)n2n1)C1CC1 [Compound 1, cyclopropanecarboxylic acid {5-[4-(1,1-dioxo-thiomorpholin-4-ylmethyl)-phenyl]-[1,2,4]triazolo[1,5-a]pyridin-2-yl}-amide]
- Subject VAS mean changes (ACR patient assessment) (50 mg q.d., week 0, LOCF, 24 weeks results): 0.0
- Subject VAS mean changes (ACR patient assessment) (50 mg q.d., week 2, LOCF, 24 weeks results): −15.5
- Subject VAS mean changes (ACR patient assessment) (50 mg q.d., week 4, LOCF, 24 weeks results): −20.9
- Subject VAS mean changes (ACR patient assessment) (50 mg q.d., week 8, LOCF, 24 weeks results): −26.4
- Subject VAS mean changes (ACR patient assessment) (50 mg q.d., week 12, LOCF, 24 weeks results): −25.2
- Subject VAS mean changes (ACR patient assessment) (50 mg q.d., week 16, LOCF, 24 weeks results): −27.7
- Subject VAS mean changes (ACR patient assessment) (50 mg q.d., week 20, LOCF, 24 weeks results): −28.1
- Subject VAS mean changes (ACR patient assessment) (50 mg q.d., week 24, LOCF, 24 weeks results): −29.4
- Subject VAS mean changes (ACR patient assessment) (50 mg q.d., week 0, LOCF, 12 weeks results): 0.0
- Subject VAS mean changes (ACR patient assessment) (50 mg q.d., week 1, LOCF, 12 weeks results): −11.2
- Subject VAS mean changes (ACR patient assessment) (50 mg q.d., week 2, LOCF, 12 weeks results): −15.5
- Subject VAS mean changes (ACR patient assessment) (50 mg q.d., week 4, LOCF, 12 weeks results): −20.9
- Subject VAS mean changes (ACR patient assessment) (50 mg q.d., week 8, LOCF, 12 weeks results): −26.4
- Subject VAS mean changes (ACR patient assessment) (50 mg q.d., week 12, LOCF, 12 weeks results): −25.2
- Subject VAS mean changes (ACR patient assessment) (100 mg q.d., week 0, LOCF, 24 weeks results): 0.0
- Subject VAS mean changes (ACR patient assessment) (100 mg q.d., week 2, LOCF, 24 weeks results): −20.9
- Subject VAS mean changes (ACR patient assessment) (100 mg q.d., week 4, LOCF, 24 weeks results): −24.4
- Subject VAS mean changes (ACR patient assessment) (100 mg q.d., week 8, LOCF, 24 weeks results): −29.8
- Subject VAS mean changes (ACR patient assessment) (100 mg q.d., week 12, LOCF, 24 weeks results): −29.1
- Subject VAS mean changes (ACR patient assessment) (100 mg q.d., week 16, LOCF, 24 weeks results): −31.7
- Subject VAS mean changes (ACR patient assessment) (100 mg q.d., week 20, LOCF, 24 weeks results): −35.1
- Subject VAS mean changes (ACR patient assessment) (100 mg q.d., week 24, LOCF, 24 weeks results): −34.4
- Subject VAS mean changes (ACR patient assessment) (100 mg q.d., week 0, LOCF, 12 weeks results): 0.0
- Subject VAS mean changes (ACR patient assessment) (100 mg q.d., week 1, LOCF, 12 weeks results): −13.2
- Subject VAS mean changes (ACR patient assessment) (100 mg q.d., week 2, LOCF, 12 weeks results): −20.8
- Subject VAS mean changes (ACR patient assessment) (100 mg q.d., week 4, LOCF, 12 weeks results): −24.4
- Subject VAS mean changes (ACR patient assessment) (100 mg q.d., week 8, LOCF, 12 weeks results): −29.8
- Subject VAS mean changes (ACR patient assessment) (100 mg q.d., week 12, LOCF, 12 weeks results): −29.1
- Subject VAS mean changes (ACR patient assessment) (200 mg q.d., week 0, LOCF, 24 weeks results): 0.0
- Subject VAS mean changes (ACR patient assessment) (200 mg q.d., week 2, LOCF, 24 weeks results): −21.8
- Subject VAS mean changes (ACR patient assessment) (200 mg q.d., week 4, LOCF, 24 weeks results): −24.9
- Subject VAS mean changes (ACR patient assessment) (200 mg q.d., week 8, LOCF, 24 weeks results): −29.6
- Subject VAS mean changes (ACR patient assessment) (200 mg q.d., week 12, LOCF, 24 weeks results): −34.2
- Subject VAS mean changes (ACR patient assessment) (200 mg q.d., week 16, LOCF, 24 weeks results): −32.9
- Subject VAS mean changes (ACR patient assessment) (200 mg q.d., week 20, LOCF, 24 weeks results): −33.0
- Subject VAS mean changes (ACR patient assessment) (200 mg q.d., week 24, LOCF, 24 weeks results): −34.9
- Subject VAS mean changes (ACR patient assessment) (200 mg q.d., week 0, LOCF, 12 weeks results): 0.0
- Subject VAS mean changes (ACR patient assessment) (200 mg q.d., week 1, LOCF, 12 weeks results): −16.7
- Subject VAS mean changes (ACR patient assessment) (200 mg q.d., week 2, LOCF, 12 weeks results): −21.8
- Subject VAS mean changes (ACR patient assessment) (200 mg q.d., week 4, LOCF, 12 weeks results): −25.2
- Subject VAS mean changes (ACR patient assessment) (200 mg q.d., week 8, LOCF, 12 weeks results): −29.6
- Subject VAS mean changes (ACR patient assessment) (200 mg q.d., week 12, LOCF, 12 weeks results): −34.0
- Subject VAS mean changes (ACR patient assessment) (2 × 25 mg b.i.d., week 0, LOCF, 12 weeks results): 0.0
- Subject VAS mean changes (ACR patient assessment) (2 × 25 mg b.i.d., week 0, LOCF, 24 weeks results): 0.0
- Subject VAS mean changes (ACR patient assessment) (2 × 25 mg b.i.d., week 1, LOCF, 12 weeks results): −8.2
- Subject VAS mean changes (ACR patient assessment) (2 × 25 mg b.i.d., week 2, LOCF, 12 weeks results): −11.7
- Subject VAS mean changes (ACR patient assessment) (2 × 25 mg b.i.d., week 2, LOCF, 24 weeks results): −11.7
- Subject VAS mean changes (ACR patient assessment) (2 × 25 mg b.i.d., week 4, LOCF, 12 weeks results): −16.0
- Subject VAS mean changes (ACR patient assessment) (2 × 25 mg b.i.d., week 4, LOCF, 24 weeks results): −16.0
- Subject VAS mean changes (ACR patient assessment) (2 × 25 mg b.i.d., week 8, LOCF, 12 weeks results): −22.2
- Subject VAS mean changes (ACR patient assessment) (2 × 25 mg b.i.d., week 8, LOCF, 24 weeks results): −22.2
- Subject VAS mean changes (ACR patient assessment) (2 × 25 mg b.i.d., week 12, LOCF, 12 weeks results): −25.2
- Subject VAS mean changes (ACR patient assessment) (2 × 25 mg b.i.d., week 12, LOCF, 24 weeks results): −25.2
- Subject VAS mean changes (ACR patient assessment) (2 × 25 mg b.i.d., week 16, LOCF, 24 weeks results): −25.5
- Subject VAS mean changes (ACR patient assessment) (2 × 25 mg b.i.d., week 20, LOCF, 24 weeks results): −25.6
- Subject VAS mean changes (ACR patient assessment) (2 × 25 mg b.i.d., week 24, LOCF, 24 weeks results): −27.3
- Subject VAS mean changes (ACR patient assessment) (2 × 50 mg b.i.d., week 0, LOCF, 12 weeks results): 0.0
- Subject VAS mean changes (ACR patient assessment) (2 × 50 mg b.i.d., week 1, LOCF, 12 weeks results): −8.8
- Subject VAS mean changes (ACR patient assessment) (2 × 50 mg b.i.d., week 2, LOCF, 12 weeks results): −13.6
- Subject VAS mean changes (ACR patient assessment) (2 × 50 mg b.i.d., week 2, LOCF, 24 weeks results): −13.8
- Subject VAS mean changes (ACR patient assessment) (2 × 50 mg b.i.d., week 4, LOCF, 12 weeks results): −16.9
- Subject VAS mean changes (ACR patient assessment) (2 × 50 mg b.i.d., week 4, LOCF, 24 weeks results): −16.9
- Subject VAS mean changes (ACR patient assessment) (2 × 50 mg b.i.d., week 8, LOCF, 12 weeks results): −21.0
- Subject VAS mean changes (ACR patient assessment) (2 × 50 mg b.i.d., week 8, LOCF, 24 weeks results): −21.0
- Subject VAS mean changes (ACR patient assessment) (2 × 50 mg b.i.d., week 12, LOCF, 12 weeks results): −27.0
- Subject VAS mean changes (ACR patient assessment) (2 × 50 mg b.i.d., week 12, LOCF, 24 weeks results): −27.0
- Subject VAS mean changes (ACR patient assessment) (2 × 50 mg b.i.d., week 16, LOCF, 24 weeks results): −26.3
- Subject VAS mean changes (ACR patient assessment) (2 × 50 mg b.i.d., week 20, LOCF, 24 weeks results): −29.7
- Subject VAS mean changes (ACR patient assessment) (2 × 50 mg b.i.d., week 24, LOCF, 24 weeks results): −28.1
- Subject VAS mean changes (ACR patient assessment) (2 × 100 mg b.i.d., week 0, LOCF, 12 weeks results): 0.0
- Subject VAS mean changes (ACR patient assessment) (2 × 100 mg b.i.d., week 1, LOCF, 12 weeks results): −20.0
- Subject VAS mean changes (ACR patient assessment) (2 × 100 mg b.i.d., week 2, LOCF, 12 weeks results): −25.5
- Subject VAS mean changes (ACR patient assessment) (2 × 100 mg b.i.d., week 2, LOCF, 24 weeks results): −25.5
- Subject VAS mean changes (ACR patient assessment) (2 × 100 mg b.i.d., week 4, LOCF, 12 weeks results): −28.6
- Subject VAS mean changes (ACR patient assessment) (2 × 100 mg b.i.d., week 4, LOCF, 24 weeks results): −28.2
- Subject VAS mean changes (ACR patient assessment) (2 × 100 mg b.i.d., week 8, LOCF, 12 weeks results): −32.8
- Subject VAS mean changes (ACR patient assessment) (2 × 100 mg b.i.d., week 8, LOCF, 24 weeks results): −33.0
- Subject VAS mean changes (ACR patient assessment) (2 × 100 mg b.i.d., week 12, LOCF, 12 weeks results): −35.6
- Subject VAS mean changes (ACR patient assessment) (2 × 100 mg b.i.d., week 12, LOCF, 24 weeks results): −35.6
- Subject VAS mean changes (ACR patient assessment) (2 × 100 mg b.i.d., week 16, LOCF, 24 weeks results): −37.9
- Subject VAS mean changes (ACR patient assessment) (2 × 100 mg b.i.d., week 20, LOCF, 24 weeks results): −39.1
- Subject VAS mean changes (ACR patient assessment) (2 × 100 mg b.i.d., week 24, LOCF, 24 weeks results): −39.1
